# Data as given in ChEMBL document CHEMBL1201862, “PubChem BioAssay data set” (2004).
# Active and inactive are the calls of the source.
# Experiments:
# [1] = MC4R antagonists, dose response, counter-screen for LGR2 antagonist project, cell-based, plate reader, cherry pick (AID 743444); format: functional;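 note: transfected HEK 293 cells stimulated with alpha-MSH peptide; potency of inhibitors of the alpha-MSH evoked signal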
# [2] = A549 cell cytotoxicity, dose response, cytotoxicity control, plate reader, cherry-pick, antagonist series (AID 743412); format: functional, cell-based
# [3] = HEK293 cell cytotoxicity, dose response, cytotoxicity control, plate reader, cherry-picked samples (AID 743446); format: functional, cell-based
# [4] = LGR2 antagonists, dose response, cell-based, HEK293, CRE-luciferase reporter, cherry pick, set 2 (AID 743343); format: functional;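 note: transfected cells were stimulated with diluted bursicon conditioned medium after compound addition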
# [5] = HepG2 cell cytotoxicity, dose response, cytotoxicity control, plate reader, cherry-pick, antagonist series (AID 743416); format: functional, cell-based
# [6] = MITF: Counter assay: A375 proliferation Measured in Cell-Based System Using Plate Reader - 2084-03_Inhibitor_Dose_DryPowder_Activity_Set8.; format: functional; details: A-375
# [7] = MITF Orthogonal Assay: SK-MEL-5 CTG Assay Measured in Cell-Based System Using Plate Reader - 2084-02_Inhibitor_Dose_DryPowder_Activity_Set7.; format: functional
# [8] = TRPM1 promoter luciferase reporter signal decrease, dose response, MITF inhibitor project, cell-based, SK-MEL-5, dry powder, set 8 (AID 624430); format: functional
# [9] = inhibitors of PGC1a acetylation in cells, dose response, cell-based, cherry-picked samples (AID 720514); format: functional;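 note: potency may reflect raised or lowered acetylation signal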
# [10] = cytotoxicity toward HT-29 cells – cell-based, CellTiter-Glo luminescence, IC50, dose response (AID 1117330); format: functional
# [11] = cytotoxicity toward Colo320 cells – cell-based, CellTiter-Glo luminescence, IC50, dose response (AID 1117334); format: functional; details: COLO 320
# [12] = RKO cell viability reduction, dose response, CellTiter-Glo luminescence (AID 1117322); format: functional
# [13] = Concentration-dependent survival of SW480 colon cancer line, luminescence detection with CellTiter-Glo, half-maximal inhibitory concentration (AID 1117338); format: functional
# [14] = SNU-C1 cell viability reduction, dose response, CellTiter-Glo luminescence (AID 1117323); format: functional, cell-based
# [15] = cytotoxicity toward HCT116 cells – cell-based, CellTiter-Glo luminescence, IC50, dose response (AID 1117332); format: functional; details: HCT-116
# [16] = CellTiter-Glo luminescent dose response of DLD-1 viability loss (AID 1117352); format: functional
# Kallikrein-7 = Kallikrein-7 (Homo sapiens, UniProt P49862); experiment: Fluorescence Intensity-based biochemical primary high throughput dose response assay to identify activators of kallikrein-7 (K7) zymogen.
# Sequence of Kallikrein-7 (P49862 whole entry): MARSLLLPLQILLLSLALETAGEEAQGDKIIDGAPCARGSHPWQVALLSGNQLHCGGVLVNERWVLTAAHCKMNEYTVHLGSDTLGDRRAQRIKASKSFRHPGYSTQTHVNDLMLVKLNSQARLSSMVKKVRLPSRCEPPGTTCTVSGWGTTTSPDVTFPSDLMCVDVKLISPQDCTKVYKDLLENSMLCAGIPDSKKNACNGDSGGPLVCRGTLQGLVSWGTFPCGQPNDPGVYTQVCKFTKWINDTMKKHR
# [17] = P. falciparum Dd2 growth inhibitors, dose response, SYBR Green, cherry-picked samples (AID 1159567); format: functional, cell-based
# [18] = HepG2 cell cytotoxicity, dose response, cytotoxicity control, cherry-picked samples (AID 1159577); format: functional, cell-based
# [19] = target: E3 ubiquitin-protein ligase Mdm2 (Homo sapiens, UniProt Q00987); experiment: enhancers of MDM2-luciferase reporter signal, concentration-effect titration, project on inhibitors of MDM2 ubiquitin ligase, cellular assay, luminescent readout, 384-well plate format (AID 1394); format: functional;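 note: MDM2 E3 inhibitors raise luminescence so EC50 is for signal enhancement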
# Sequence of E3 ubiquitin-protein ligase Mdm2 (Q00987 whole entry): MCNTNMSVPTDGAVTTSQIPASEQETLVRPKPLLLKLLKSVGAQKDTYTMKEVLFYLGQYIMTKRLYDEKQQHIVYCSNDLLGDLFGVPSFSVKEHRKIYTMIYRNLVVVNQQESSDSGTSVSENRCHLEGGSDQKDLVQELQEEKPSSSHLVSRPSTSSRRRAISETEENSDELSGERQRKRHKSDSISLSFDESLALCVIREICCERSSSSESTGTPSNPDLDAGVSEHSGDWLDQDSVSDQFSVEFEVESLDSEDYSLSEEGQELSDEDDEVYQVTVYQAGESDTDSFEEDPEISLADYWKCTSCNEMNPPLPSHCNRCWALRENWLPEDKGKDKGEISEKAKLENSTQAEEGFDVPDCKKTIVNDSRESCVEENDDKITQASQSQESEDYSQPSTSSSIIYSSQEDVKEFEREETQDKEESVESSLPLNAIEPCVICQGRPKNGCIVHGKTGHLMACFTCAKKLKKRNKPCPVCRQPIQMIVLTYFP
# [20] = Jurkat T cell cytotoxicity, dose response, cytotoxicity control for P. falciparum gametocyte viability project, luminescence (AID 1117277); format: functional, cell-based;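 note: potency reflects loss of cellular ATP meaning fewer viable cells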
# [21] = P. falciparum late gametocyte killing, dose response, luminescence (AID 1117278); format: functional, cell-based;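 note: gametocytes exposed to compound for 24 hours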
# [22] = inhibitors of Vif binding to APOBEC3G peptide, primary screen, biochemical, TR-FRET, GST-Vif 1-94, biotin-A3G peptide, dose response retest (AID 1117319); format: functional;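 note: TR-FRET signal of purified GST-Vif binding a biotinylated A3G peptide; inhibitors lower the FRET signal by blocking Vif and A3G binding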
# [23] = target: Disintegrin and metalloproteinase domain-containing protein 17 (Homo sapiens, UniProt P78536); experiment: ADAM17 protease inhibitors, dose response, counter-screen for ADAM10 exosite inhibitor project, biochemical, quenched FRET substrate (AID 743253)
# Sequence of Disintegrin and metalloproteinase domain-containing protein 17 (P78536 whole entry, the tested form may be a part): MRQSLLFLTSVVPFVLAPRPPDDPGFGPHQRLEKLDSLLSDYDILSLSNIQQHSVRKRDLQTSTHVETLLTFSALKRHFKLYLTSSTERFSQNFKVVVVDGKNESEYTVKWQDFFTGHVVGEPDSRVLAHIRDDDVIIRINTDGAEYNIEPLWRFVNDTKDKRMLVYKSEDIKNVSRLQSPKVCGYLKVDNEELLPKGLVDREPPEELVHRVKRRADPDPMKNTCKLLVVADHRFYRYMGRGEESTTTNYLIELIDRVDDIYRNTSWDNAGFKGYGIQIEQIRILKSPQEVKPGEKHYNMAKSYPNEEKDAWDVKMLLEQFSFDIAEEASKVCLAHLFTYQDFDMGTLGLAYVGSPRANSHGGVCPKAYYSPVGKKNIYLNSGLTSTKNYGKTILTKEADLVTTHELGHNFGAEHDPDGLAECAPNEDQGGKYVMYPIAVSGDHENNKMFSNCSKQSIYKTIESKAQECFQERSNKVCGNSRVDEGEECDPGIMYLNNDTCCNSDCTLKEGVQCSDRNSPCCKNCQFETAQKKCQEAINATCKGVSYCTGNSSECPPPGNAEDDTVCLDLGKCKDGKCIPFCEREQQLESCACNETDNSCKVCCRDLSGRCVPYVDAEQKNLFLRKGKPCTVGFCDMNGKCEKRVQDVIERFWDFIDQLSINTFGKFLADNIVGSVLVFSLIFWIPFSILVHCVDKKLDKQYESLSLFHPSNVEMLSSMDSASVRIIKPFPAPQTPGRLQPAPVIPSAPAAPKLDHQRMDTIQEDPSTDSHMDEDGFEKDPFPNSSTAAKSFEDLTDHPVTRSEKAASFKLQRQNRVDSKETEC
# [24] = ADAM10 inhibitors, peptide cleavage, dose response, biochemical, QFRET (AID 743254);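 note: ADAM10 enzyme with the DM2 quenched FRET peptide as substrate; EDANS fluorescence gain as the protease cuts the substrate; inhibitor potency against ADAM10 proteolytic activity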
# [25] = growth suppression of beta-catenin-knockout colon cells, dose response, cell-based, HCT116, human colon tumor (AID 1045); format: functional;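 note: HCT116 colon tumor cells with beta catenin knocked out; cells exposed to compound for 60 hours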
# [26] = growth suppression of PTEN-null colon cells, dose response, cell-based, HCT116 PTEN knockout (AID 1047); format: functional;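 note: HCT116 colon tumor cells with PTEN knocked out; cells exposed to compound for 60 hours before readout; potency for loss of cell viability measured by luminescence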
# [27] = Vero cell cytotoxicity, dose response, cytotoxicity control for Vif-APOBEC3G degradation inhibitor project, Vero cells (AID 1117358); format: functional; details: Human immunodeficiency virus 1, Vero
# Caspase-6 = target: T1, Caspase-6 (Homo sapiens, UniProt P55212); experiment: human caspase-6 inhibitors, dose response, biochemical, VEID-R110 fluorescence, cherry-pick (AID 720632)
# T1 sequence (P55212 whole entry): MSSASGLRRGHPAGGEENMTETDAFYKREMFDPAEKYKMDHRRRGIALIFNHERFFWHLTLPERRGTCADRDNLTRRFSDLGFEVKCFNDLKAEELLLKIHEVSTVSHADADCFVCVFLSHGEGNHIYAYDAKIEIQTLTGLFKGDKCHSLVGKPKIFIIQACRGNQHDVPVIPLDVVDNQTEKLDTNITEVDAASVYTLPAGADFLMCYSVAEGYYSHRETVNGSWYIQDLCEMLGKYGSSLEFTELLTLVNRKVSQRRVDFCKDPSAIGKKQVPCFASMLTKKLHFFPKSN
# Genome polyprotein = Genome polyprotein (dengue virus type 2, UniProt P29990); experiment: Dengue-2 NS5 methyltransferase inhibitors, primary screen, biochemical, confirmation dose response (AID 588689); format: functional
# Sequence of Genome polyprotein (P29990 2492-3391 limits assumed): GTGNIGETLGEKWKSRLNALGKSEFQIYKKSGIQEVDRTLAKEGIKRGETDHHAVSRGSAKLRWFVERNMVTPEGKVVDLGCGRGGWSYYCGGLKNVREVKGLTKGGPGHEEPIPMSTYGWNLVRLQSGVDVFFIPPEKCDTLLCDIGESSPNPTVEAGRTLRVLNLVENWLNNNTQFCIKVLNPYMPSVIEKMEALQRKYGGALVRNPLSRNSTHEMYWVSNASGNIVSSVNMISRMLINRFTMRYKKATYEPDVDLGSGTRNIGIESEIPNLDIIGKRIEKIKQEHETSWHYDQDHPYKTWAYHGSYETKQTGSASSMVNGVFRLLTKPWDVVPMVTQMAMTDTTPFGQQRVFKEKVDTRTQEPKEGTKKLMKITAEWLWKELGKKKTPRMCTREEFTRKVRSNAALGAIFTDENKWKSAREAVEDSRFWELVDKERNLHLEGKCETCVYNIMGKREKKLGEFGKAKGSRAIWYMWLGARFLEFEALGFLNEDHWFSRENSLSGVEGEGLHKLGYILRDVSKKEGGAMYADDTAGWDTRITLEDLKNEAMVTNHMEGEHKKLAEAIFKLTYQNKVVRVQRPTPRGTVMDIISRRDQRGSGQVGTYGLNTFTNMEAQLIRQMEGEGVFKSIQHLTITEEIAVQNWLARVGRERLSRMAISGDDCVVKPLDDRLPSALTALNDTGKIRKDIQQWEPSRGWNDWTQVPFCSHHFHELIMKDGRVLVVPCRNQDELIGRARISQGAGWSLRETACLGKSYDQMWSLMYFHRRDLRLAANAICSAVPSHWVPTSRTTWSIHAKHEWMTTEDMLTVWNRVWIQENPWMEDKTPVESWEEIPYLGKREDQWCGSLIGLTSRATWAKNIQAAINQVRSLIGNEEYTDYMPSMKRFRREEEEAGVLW
# [28] = THP-1 cell cytotoxicity, dose response, cytotoxicity control for Vif-APOBEC3G degradation inhibitor project, THP-1 cells (AID 1117359); format: functional; details: Human immunodeficiency virus 1, THP-1
# [29] = target: T2, Apoptotic protease-activating factor 1 (Homo sapiens, UniProt O14727); format: functional
# T2 sequence (O14727 whole entry): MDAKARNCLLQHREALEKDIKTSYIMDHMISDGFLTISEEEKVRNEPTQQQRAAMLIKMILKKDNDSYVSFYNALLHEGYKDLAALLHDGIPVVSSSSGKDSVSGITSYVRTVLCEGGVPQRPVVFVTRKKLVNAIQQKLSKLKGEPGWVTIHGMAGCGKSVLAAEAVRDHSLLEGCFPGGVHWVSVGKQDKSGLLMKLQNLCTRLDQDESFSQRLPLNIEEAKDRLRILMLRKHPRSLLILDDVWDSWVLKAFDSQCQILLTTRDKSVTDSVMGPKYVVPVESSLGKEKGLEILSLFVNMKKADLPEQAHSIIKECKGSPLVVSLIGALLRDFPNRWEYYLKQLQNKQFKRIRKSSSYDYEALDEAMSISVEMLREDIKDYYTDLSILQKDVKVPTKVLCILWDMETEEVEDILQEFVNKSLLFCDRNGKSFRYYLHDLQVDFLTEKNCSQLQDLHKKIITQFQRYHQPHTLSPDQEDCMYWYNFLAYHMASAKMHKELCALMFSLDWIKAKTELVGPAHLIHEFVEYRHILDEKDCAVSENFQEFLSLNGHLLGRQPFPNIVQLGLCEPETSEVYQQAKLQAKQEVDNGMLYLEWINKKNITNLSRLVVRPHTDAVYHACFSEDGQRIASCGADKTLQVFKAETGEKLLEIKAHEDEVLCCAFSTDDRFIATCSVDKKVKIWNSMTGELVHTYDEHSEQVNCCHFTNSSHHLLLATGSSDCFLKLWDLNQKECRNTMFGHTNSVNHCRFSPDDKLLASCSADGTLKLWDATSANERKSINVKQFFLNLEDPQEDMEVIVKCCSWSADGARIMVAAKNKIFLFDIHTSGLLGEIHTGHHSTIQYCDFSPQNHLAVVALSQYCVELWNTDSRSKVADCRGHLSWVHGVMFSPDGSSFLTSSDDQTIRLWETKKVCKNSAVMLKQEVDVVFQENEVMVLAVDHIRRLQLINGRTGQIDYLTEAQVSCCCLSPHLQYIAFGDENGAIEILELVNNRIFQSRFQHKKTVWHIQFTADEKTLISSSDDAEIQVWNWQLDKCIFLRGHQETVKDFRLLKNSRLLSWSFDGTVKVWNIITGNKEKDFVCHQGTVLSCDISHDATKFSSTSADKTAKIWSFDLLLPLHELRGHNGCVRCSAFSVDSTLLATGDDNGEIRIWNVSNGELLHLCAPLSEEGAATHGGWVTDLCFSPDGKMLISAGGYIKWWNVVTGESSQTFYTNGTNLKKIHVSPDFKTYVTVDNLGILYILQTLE
# Protein Tat = target: T3, Protein Tat (Human immunodeficiency virus type 1 group M subtype B (isolate HXB2)(HIV-1), UniProt P04608); format: functional;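 note: tat binding to TAR RNA read out by fluorescence polarization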
# T3 sequence (P04608 whole entry): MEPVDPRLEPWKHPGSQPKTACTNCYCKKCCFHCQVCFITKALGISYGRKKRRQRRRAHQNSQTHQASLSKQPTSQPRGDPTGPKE
# [30] = NIH-3T3 fibroblast cytotoxicity, dose response, cytotoxicity control, cell-based, fluorescence, Alamar Blue, secondary assay (AID 2327); format: functional;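 note: NIH-3T3 mouse fibroblasts cultured with fluconazole at 8 µg/mL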
# [31] = C. albicans growth with fluconazole, confirmation, fluorescence, retest (AID 2467); format: functional, cell-based
# [32] = Dose-response inhibition of insulin secretion in a rat insulinoma line at 5 mM glucose (AID 1117331); format: functional, cell-based; details: INS-1E
smiles,measurement,setting,value
CCCc1c(-c2ccccc2F)ncn1CCc1ccccc1OC,AC50,[1],17.4 µM (active)
same,AC50,[2],23.5 µM (active)
same,AC50,[3],31.7 µM (active)
same,AC50,[4],13.4 µM (active)
same,AC50,[5],23.6 µM (active)
CN1CCN(C2=C(Nc3ccc(F)cc3)C(=O)c3ccccc3C2=O)CC1,AC50,[6],> 70 µM (inactive)
same,AC50,[7],12.1 µM (active)
same,AC50,[8],8.28 µM (active)
O=C(/C=C/c1cccs1)c1ccc(NC(=O)c2cccc(Br)c2)cc1,AC50,[9],28.9 µM (active)
CC(C)(C)CC(C)(C)c1cc(Cc2cc(C(C)(C)CC(C)(C)C)cc(-n3nc4ccccc4n3)c2O)c(O)c(-n2nc3ccccc3n2)c1 [BISOCTRIZOLE],IC50,[10],> 20 µM (inactive)
same,IC50,[11],> 20 µM (inactive)
same,IC50,[12],> 20 µM (inactive)
same,IC50,[13],> 20 µM (inactive)
same,IC50,[14],> 20 µM (inactive)
same,IC50,[15],> 20 µM (inactive)
same,IC50,[16],> 20 µM (inactive)
COc1ccc(-c2cc(C(=O)NC3CC3)c3ccccc3n2)cc1,EC50,Kallikrein-7,86.4 µM (inactive)
Fc1ccc(-c2ccc([C@@H]3[C@@H]4CN(Cc5ccccc5)C[C@H]3N4)cc2)cc1,AC50,[17],4.07 µM (active)
same,AC50,[9],14.3 µM (active)
same,AC50,[18],8.83 µM (active)
Cc1ccccc1Nc1nnc(SCC2CCCCO2)s1 (centres undefined),EC50,[19],8.93 µM (not active)
CCOC(=O)C(C#N)C(c1cccnc1)c1c(C)n[nH]c1O (centres undefined),IC50,[20],> 83.3 µM (inactive)
same,IC50,[21],> 109 µM (inactive)
CC1=C(C(=O)NCc2ccco2)C2(CCC(C)CC2)OC1=O (centres undefined),IC50,[22],> 100 µM (active)
COc1cc(NC(=O)c2ccccc2)c(C)cc1NC(=O)CSc1nnc(-c2ccccc2F)n1-c1ccc(C)cc1,IC50,[23],> 69.5 µM (inactive)
same,IC50,[24],> 69.5 µM (inactive)
CCOC(=O)c1c(C)oc2c1c(/C=N/Cc1ccccn1)c(O)c1ccccc12,EC50,[25],26.4 µM (active)
same,EC50,[26],25 µM (active)
same,CC50,[27],34.4 µM (active)
same,AC50,Caspase-6,11 µM (active)
Cc1csc(CNc2ncnc3ccc(-c4ccoc4)cc23)c1,AC50,[1],0.489 µM (active)
same,AC50,[2],> 52 µM (inactive)
same,AC50,[3],28.9 µM (active)
same,AC50,[4],0.81 µM (active)
same,AC50,[5],27.8 µM (active)
CCc1ccc(CNc2ccc(O)cc2)cc1,IC50,Genome polyprotein,> 100 µM (active)
same,CC50,[28],26.4 µM (active)
same,IC50,[29],27.5 µM (active)
same,IC50,[22],> 50.6 µM (active)
same,IC50,Protein Tat,25.4 µM (inconclusive)
C=CCO/C(O)=C1\C(C)=NC(SCC(=O)NC(=O)OCC)=C(C#N)C1c1cccnc1 (centres undefined),EC50,[30],> 150 µM (inactive)
same,EC50,[31],6.32 µM (active)
same,EC50,Kallikrein-7,4.56 µM (active)
CN(C)CC/C=C1\c2ccccc2Sc2ccc(Cl)cc21,IC50,[32],> 33.3 µM (inactive)
